Results reported in ChEMBL document CHEMBL2380218, “A facile chemo-, regio- and stereoselective synthesis and cholinesterase inhibitory activity of spirooxindole-pyrrolizine-piperidine hybrids” (Bioorg Med Chem Lett, 2013).

Key:
Cholinesterase = Cholinesterase (Equus caballus, UniProt P81908); assay: Inhibition of equine serum BuChE using S-butyrylthiocholine chloride as substrate incubated for 15 mins prior to substrate addition measured after 30 mins by Ellman's method
Acetylcholinesterase = Acetylcholinesterase (Homo sapiens, UniProt P22303); assay: Inhibition of AChE (unknown origin) using acetylthiocholine iodide as substrate incubated for 15 mins prior to substrate addition measured after 30 mins by Ellman's method
Acetylcholinesterase, sequence (P22303 whole entry): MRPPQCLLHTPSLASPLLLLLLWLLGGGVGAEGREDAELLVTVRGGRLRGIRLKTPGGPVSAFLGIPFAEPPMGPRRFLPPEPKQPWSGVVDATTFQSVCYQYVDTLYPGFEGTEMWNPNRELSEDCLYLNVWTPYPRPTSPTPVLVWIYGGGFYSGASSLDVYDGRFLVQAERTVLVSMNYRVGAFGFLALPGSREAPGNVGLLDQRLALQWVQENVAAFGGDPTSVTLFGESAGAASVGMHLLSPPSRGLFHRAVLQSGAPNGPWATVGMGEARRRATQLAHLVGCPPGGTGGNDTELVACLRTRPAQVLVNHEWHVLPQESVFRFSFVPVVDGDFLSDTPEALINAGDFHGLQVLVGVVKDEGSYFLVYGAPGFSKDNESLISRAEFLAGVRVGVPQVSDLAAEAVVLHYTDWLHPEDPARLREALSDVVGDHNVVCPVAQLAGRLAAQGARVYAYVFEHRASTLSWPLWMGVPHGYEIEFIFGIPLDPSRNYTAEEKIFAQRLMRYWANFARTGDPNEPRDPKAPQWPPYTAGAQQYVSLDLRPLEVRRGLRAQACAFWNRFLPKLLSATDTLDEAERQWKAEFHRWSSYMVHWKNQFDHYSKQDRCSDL

Cholinesterase, sequence (P81908 whole entry): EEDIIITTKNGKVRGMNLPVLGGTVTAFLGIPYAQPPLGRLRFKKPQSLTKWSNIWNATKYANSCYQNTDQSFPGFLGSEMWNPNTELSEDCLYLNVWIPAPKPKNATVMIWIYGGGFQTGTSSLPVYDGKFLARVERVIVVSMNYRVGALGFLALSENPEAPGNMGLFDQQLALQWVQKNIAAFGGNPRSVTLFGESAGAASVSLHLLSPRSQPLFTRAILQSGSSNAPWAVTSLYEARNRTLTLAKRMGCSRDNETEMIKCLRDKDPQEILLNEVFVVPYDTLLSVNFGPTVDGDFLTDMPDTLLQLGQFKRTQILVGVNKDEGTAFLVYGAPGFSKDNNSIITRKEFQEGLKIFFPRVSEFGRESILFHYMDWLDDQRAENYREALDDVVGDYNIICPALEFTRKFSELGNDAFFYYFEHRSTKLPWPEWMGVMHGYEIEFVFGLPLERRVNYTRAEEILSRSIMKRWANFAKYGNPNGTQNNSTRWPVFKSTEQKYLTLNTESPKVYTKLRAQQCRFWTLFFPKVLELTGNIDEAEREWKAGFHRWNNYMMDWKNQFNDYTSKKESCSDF

COc1ccccc1/C=C1\CN(C(=O)[C@H]2C[C@H]3CCCN3[C@]23C(=O)Nc2cc(Cl)ccc23)C/C(=C\c2ccccc2OC)C1=O
IC50 (Cholinesterase): 7.82 µM | IC50 (Acetylcholinesterase): 14.5 µM

Cc1ccccc1/C=C1\CN(C(=O)[C@H]2C[C@H]3CCCN3[C@]23C(=O)Nc2cc(Cl)ccc23)C/C(=C\c2ccccc2C)C1=O
IC50 (Cholinesterase): 15.1 µM | IC50 (Acetylcholinesterase): 11.2 µM

Cc1ccc(/C=C2\CN(C(=O)[C@H]3C[C@H]4CCCN4[C@]34C(=O)Nc3cc(Cl)ccc34)C/C(=C\c3ccc(C)cc3)C2=O)cc1
IC50 (Cholinesterase): 22.2 µM | IC50 (Acetylcholinesterase): 7.6 µM

O=C1/C(=C/c2ccc(Cl)cc2Cl)CN(C(=O)[C@H]2C[C@H]3CCCN3[C@]23C(=O)Nc2cc(Cl)ccc23)C/C1=C\c1ccc(Cl)cc1Cl
IC50 (Cholinesterase): 20.1 µM | IC50 (Acetylcholinesterase): 3.33 µM

O=C1/C(=C/c2cccc([N+](=O)[O-])c2)CN(C(=O)[C@H]2C[C@H]3CCCN3[C@]23C(=O)Nc2cc(Cl)ccc23)C/C1=C\c1cccc([N+](=O)[O-])c1
IC50 (Cholinesterase): 17.2 µM | IC50 (Acetylcholinesterase): 4.28 µM

O=C1/C(=C/c2ccccc2)CN(C(=O)[C@H]2C[C@H]3CCCN3[C@]23C(=O)Nc2cc(Cl)ccc23)C/C1=C\c1ccccc1
IC50 (Cholinesterase): 15.4 µM | IC50 (Acetylcholinesterase): 15.7 µM

O=C1/C(=C/c2ccccc2Cl)CN(C(=O)[C@H]2C[C@H]3CCCN3[C@]23C(=O)Nc2cc(Cl)ccc23)C/C1=C\c1ccccc1Cl
IC50 (Cholinesterase): 17.4 µM | IC50 (Acetylcholinesterase): 5.08 µM

O=C1/C(=C/c2ccccc2F)CN(C(=O)[C@H]2C[C@H]3CCCN3[C@]23C(=O)Nc2cc(Cl)ccc23)C/C1=C\c1ccccc1F
IC50 (Cholinesterase): 3.13 µM | IC50 (Acetylcholinesterase): 29.5 µM

O=C1/C(=C/c2ccc(F)cc2)CN(C(=O)[C@H]2C[C@H]3CCCN3[C@]23C(=O)Nc2cc(Cl)ccc23)C/C1=C\c1ccc(F)cc1
IC50 (Cholinesterase): 3.64 µM | IC50 (Acetylcholinesterase): 22.3 µM

O=C1/C(=C/c2ccc(Cl)cc2)CN(C(=O)[C@H]2C[C@H]3CCCN3[C@]23C(=O)Nc2cc(Cl)ccc23)C/C1=C\c1ccc(Cl)cc1
IC50 (Cholinesterase): 28.2 µM | IC50 (Acetylcholinesterase): 3.36 µM

O=C1/C(=C/c2cccc3ccccc23)CN(C(=O)[C@H]2C[C@H]3CCCN3[C@]23C(=O)Nc2cc(Cl)ccc23)C/C1=C\c1cccc2ccccc12
IC50 (Cholinesterase): 9.65 µM | IC50 (Acetylcholinesterase): 5.81 µM
